The species named for assay [1] is Homo sapiens. Briefly: Inhibition of human TMPK expressed in Escherichia coli at 1 mM by spectrophotometric assay.
For assay [2], the species on record is Homo sapiens. Briefly: Inhibition of human TMPK expressed in Escherichia coli by spectrophotometric assay.

Active and inactive are the calls of the source. The rule behind the calls is not given here.

In the case of `Cc1cn([C@@H]2C[C@@H](CNC(=O)NC[C@H]3C[C@H](n4cc(C)c(=O)[nH]c4=O)O[C@@H]3CO)[C@H](CO)O2)c(=O)[nH]c1=O`, the outcome in the assay listed under Homo sapiens [1] was inactive. Take `Cc1cn([C@H]2C[C@H](O)[C@@H](COP(=O)(O)O)O2)c(=O)[nH]c1=O`: the Michaelis constant (Km) in the assay filed under Homo sapiens [2] stood at 5 µM.

(Values after ChEMBL document CHEMBL1137559, “Rational design of 5'-thiourea-substituted alpha-thymidine analogues as thymidine monophosphate kinase inhibitors capable of inhibiting mycobacterial growth” (J Med Chem, 2007).)
